Eff. % and LogP data for 34 molecules are collected here from US9090600B2, “Fungicidal 4-substituted-3-{phenyl[(heterocyclylmethoxy)imino]methyl}-1,2,4-oxadizol-5(4H)-one derivatives” (BAYER INTELLECTUAL PROPERTY GMBH, priority 2011, dated 2015).

For data set [1], the system named is Phytophthora infestans. Type of data set: in vivo. As to conditions: tomato plants, spray, 500 ppm, grading 5 days after contamination.
For data set [2] the following is noted: pH 2.7.
In data set [3] the test system is Phytophthora infestans. In kind it is in vivo. Conditions: tomato, preventive spray, 100 ppm of active ingredient, evaluated 7 days after inoculation.
The next data set has as its system Plasmopara viticola. In words: Plasmopara test (grapevines)/preventive. Type of data set: in vivo. Conditions: preventive spray, 10 ppm of active ingredient, evaluated 6 days after inoculation. In outline: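 Young grapevines sprayed preventively with compound formulated in acetone/dimethylacetamide with emulsifier, diluted in water, then inoculated with P. viticola spores after drying. Held 1 day at ~20 °C/100% RH, 4 days in greenhouse at ~21 °C/~90% RH, then misted for 1 day. Efficacy scored 6 days post-inoculation (0% = untreated control, 100% = no disease).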

In data set [4] the test system is Mycosphaerella graminicola. In words: In vivo test on Mycosphaerella graminicola (wheat leaf spot). Conditions: wheat plants, spray, 500 ppm, grading 21 to 28 days after contamination. On the procedure: The active ingredients tested are prepared by homogenization in a mixture of acetone/tween/DMSO, then diluted with water to obtain the desired active material concentration.
Wheat plants (Scipion variety), sown on a 50/50 peat soil-pozzolana substrate in starter cups and grown at 22° C. (12 h)/20° C. (12 h), are treated at the 1-leaf stage (10 cm tall) by spraying with the aqueous suspension described above. Plants, used as controls, are treated with an aqueous solution not containing the active material.
After 24 hours, the plants are contaminated by spraying them with an aqueous suspension of cryopreserved Mycosphaerella graminicola spores (500.000 spores per ml). The contaminated wheat plants are incubated for 72 hours at 18° C. and at 100% relative humidity, and then for 21 to 28 days at 90% relative humidity.
Grading (% of efficacy) is carried out 21 to 28 days after the contamination, in comparison with the control plants.
(§1) Under these conditions, good (at least 70%) or total protection is observed at a dose of 500 ppm with the following compounds: […]

The next data set has as its system Puccinia recondita. In words: In vivo test on Puccinia recondita (brown rust). As to conditions: wheat plants, spray, 500 ppm, grading 10 days after contamination. On the procedure:
The active ingredients tested are prepared by homogenization in a mixture of acetone/tween/DMSO, then diluted with water to obtain the desired active material.
Wheat plants (Scipion variety) sown on 50/50 peat soil-pozzolana substrate in starter cups and grown at 22° C. (12 h)/20° C. (12 h), are treated at the 1-leaf stage (10 cm tall) by spraying with the aqueous suspension described above.
Plants, used as controls, are treated with an aqueous solution not containing the active material. After 24 hours, the plants are contaminated by spraying the leaves with an aqueous suspension of Puccinia recondite spores (100.000 spores per ml). The spores are collected from a 10-day-old contaminated wheat and are suspended in water containing 2.5 ml/l of tween 80 10%. The contaminated wheat plants are incubated for 24 hours at 20° C. and at 100% relative humidity, and then for 10 days at 20° C. and at 70% relative humidity. Grading is carried out 10 days after the contamination, in comparison with the control plants.
as §1

Like-named read-outs stand apart in the source and are kept apart here. Marks after values point to notes of the source that are not given here.

Take `CCCCCCC(=O)Nc1cccc(CO/N=C(/c2ccccc2)c2noc(=O)n2C)n1` [Example 8]: the Eff. % was 100% in the data set on Phytophthora infestans [1], 98% with Phytophthora infestans [3] and 99% in the data set with Plasmopara viticola. The log partition coefficient (LogP) in data set [2] is 4.3 [a].
For the molecule `Cc1cccc(/C(=N/OCc2cccc(N)n2)c2noc(=O)n2C)c1` [Example 30], the Eff. % in the data set with Phytophthora infestans [1] is listed as 100%; in data set [4], 86%. Further, the log partition coefficient (LogP) in data set [2] is 1.45 [a].
The corresponding values for `Cn1c(/C(=N\OCc2csc(NC(=O)c3ccccc3Cl)n2)c2ccccc2)noc1=O` [Example 57] are 85%, 79% and 3.46 [a].
Regarding `Cn1c(/C(=N\OCc2cccc(NC(=O)CCCl)n2)c2ccccc2)noc1=O` [Example 63], the figures for the Eff. % with Phytophthora infestans [1] and in the data set on Puccinia recondita were 100% and 75%, respectively. In addition, the LogP in data set [2] was 3.02 [a].
The corresponding values for `Cn1c(/C(=N\OCc2cccc(NC(=O)CCCCBr)n2)c2ccccc2)noc1=O` [Example 73] are 100%, 81% and 3.59 [a].
As for `Cn1c(/C(=N\OCc2cccc(NC(=O)CCC3CCCCC3)n2)c2ccccc2)noc1=O` [Example 77], the Eff. % with Phytophthora infestans [1] came out at 100%; in data set [4], 71%. Besides, the LogP in data set [2] was 4.73 [a].
As to `CCn1c(/C(=N\OCc2cccc(NC(=O)Cc3ccc(OC)cc3)n2)c2ccccc2)noc1=O` [Example 88], the Eff. % in the data set with Phytophthora infestans [1] was found to be 98%; in the data set with Puccinia recondita, 78%. Also, in data set [2], the log partition coefficient (LogP) was 3.7 [a].
For `COc1cccc(/C(=N/OCc2cccc(N)n2)c2noc(=O)n2C)c1` [Example 108], the Eff. % came to 100% in the data set with Phytophthora infestans [1] and 71% in data set [4]. Moreover, in data set [2], the LogP is 1.32 [a].
In the case of `CCC(C)(C)OC(=O)Nc1cccc(CO/N=C(/c2ccccc2)c2noc(=O)n2C)n1` [Example 120], the Eff. % stood at 100% with Phytophthora infestans [1], 84% with Plasmopara viticola and 98% in the data set with Puccinia recondita. Moreover, in data set [2], the LogP was 1.99 [a].
With `CCn1c(/C(=N\OCc2cccc(NC(=O)C3COc4ccccc4O3)n2)c2ccccc2)noc1=O` (centres unmarked) [Example 130], the Eff. % was 100% in the data set on Phytophthora infestans [1] and 86% in data set [4]. In addition, in data set [2], the LogP was 4.14 [a].
With `COc1cccc(/C(=N/OCc2cccc(NC(=O)OC(C)(C)C)n2)c2noc(=O)n2C)c1` [Example 131], the Eff. % was found to be 100% with Phytophthora infestans [1] and 81% with Puccinia recondita. Besides, in data set [2], the lipophilicity (LogP) is 3.99 [a].
Take `Cn1c(/C(=N\OCc2cccc(NC(=O)C(C)(C)C)n2)c2ccccc2)noc1=O` [Example 148]: the Eff. % was determined as 100% with Phytophthora infestans [1], 97% in the data set on Phytophthora infestans [3] and 100% in the data set with Plasmopara viticola. Also, the LogP in data set [2] was 3.48 [a].
Take `COc1cccc(CCOC(=O)Nc2cccc(CO/N=C(/c3ccccc3)c3noc(=O)n3C)n2)c1` [Example 151]: the Eff. % came to 85% in the data set with Phytophthora infestans [1] and 92% in data set [4]. The LogP in data set [2] is 4.11 [a].
In the same order, the values of `Cn1c(/C(=N\OCc2csc(NC(=O)c3ccccc3I)n2)c2ccccc2)noc1=O` [Example 158] are 85%, 80% and 3.6 [a].
Consider `CCCC(C)C(=O)Nc1cccc(CO/N=C(/c2ccccc2)c2noc(=O)n2CC)n1` (centres unmarked) [Example 172], for which the figures for the Eff. % (in the data set with Phytophthora infestans [1]; in data set [4]; in the data set with Puccinia recondita) were 100%, 86% and 89%, respectively. Further, the LogP in data set [2] is 4.06 [a].
As to `Cn1c(/C(=N\OCc2cccc(NC(=O)CC(C)(C)C)n2)c2ccccc2)noc1=O` [Example 173], the Eff. % in the data set on Phytophthora infestans [1] is recorded as 100%; in data set [4] it was 73%; with Plasmopara viticola, 86%; with Puccinia recondita, 89%. Moreover, in data set [2], the LogP is 3.78 [a].
Consider `COc1ccc(/C(=N/OCc2cccc(NC(=O)C(F)(F)F)n2)c2noc(=O)n2C)cc1` [Example 191], for which the Eff. % turned out to be 95% with Phytophthora infestans [1] and 89% in the data set with Puccinia recondita. Further, the LogP in data set [2] is 3.37 [a].
For the molecule `CCCCCC(=O)Nc1nc(CO/N=C(/c2ccccc2)c2noc(=O)n2C)cs1` [Example 198], in data set [2], the LogP is 3.76 [a]. Besides, the Eff. % is 95% in the data set on Phytophthora infestans [3] and 100% with Plasmopara viticola.
For `C#CCCC(C)OC(=O)Nc1cccc(CO/N=C(/c2ccccc2)c2noc(=O)n2CC)n1` (centres unmarked) [Example 207], the results for the Eff. % (in the data set with Phytophthora infestans [1]; in data set [4]) were 100% and 79%, respectively. In data set [2], the LogP was 4.04 [a].
For `CCCCOC(=O)Nc1cccc(CO/N=C(/c2cccc(C)c2)c2noc(=O)n2C)n1` [Example 215], the Eff. % in the data set on Phytophthora infestans [1] is reported as 98%; in the data set with Puccinia recondita, 81%. Also, the LogP in data set [2] is 4.36 [a].
Turning to `Cc1cccc(/C(=N/OCc2cccc(NC(=O)OC(C)CC(C)C)n2)c2noc(=O)n2C)c1` (centres unmarked) [Example 223], the Eff. % in data set [4] was 80%. Further, the LogP in data set [2] is 5.05 [a].
As to `CCCC(C)C(=O)Nc1cccc(CON=C(c2ccccc2)c2noc(=O)n2C)n1` (centres unmarked) [Example 248], the results for the Eff. % (with Phytophthora infestans [1]; in data set [4]; in the data set with Plasmopara viticola) were 100%, 86% and 85%, respectively. In addition, the LogP in data set [2] is 3.8 [a].
As for `CCn1c(C(=NOCc2cccc(NC(=O)OCCc3ccccc3)n2)c2ccccc2)noc1=O` [Example 270], the Eff. % in the data set on Phytophthora infestans [1] worked out at 100%; in data set [4], 86%. The LogP in data set [2] is 4.41 [a].
Take `CC(C)C(C)OC(=O)Nc1cccc(CO/N=C(/c2ccccc2)c2noc(=O)n2C)n1` (centres unmarked) [Example 292]: the Eff. % with Phytophthora infestans [1] was determined as 99%; with Plasmopara viticola, 90%; in the data set with Puccinia recondita, 75%. The LogP in data set [2] was 4.27 [a].
`C#CC(C)(C)OC(=O)Nc1cccc(CO/N=C(/c2ccccc2)c2noc(=O)n2C)n1` [Example 317]: the Eff. % with Phytophthora infestans [1] amounted to 98%; in the data set on Plasmopara viticola it was 91%; with Puccinia recondita, 81%. Besides, the lipophilicity (LogP) in data set [2] is 3.6 [a].
Turning to `Cn1c(/C(=N\OCc2cccc(NC(=O)CCc3ccccc3)n2)c2ccc(F)cc2)noc1=O` [Example 324], the Eff. % with Phytophthora infestans [1] came to 94%; in the data set with Puccinia recondita, 75%. Further, in data set [2], the LogP is 3.87 [a].
`COc1cccc(/C(=N/OCc2cccc(NC(=O)OCCc3ccccc3)n2)c2noc(=O)n2C)c1` [Example 325]: the figures for the Eff. % with Phytophthora infestans [1], with Plasmopara viticola and with Puccinia recondita were 99%, 84% and 75%, respectively. Further, the LogP in data set [2] is 4.19 [a].
For `Cn1c(/C(=N\OCc2cccc(N(C(=O)Oc3ccc(F)cc3)C(=O)Oc3ccc(F)cc3)n2)c2ccccc2)noc1=O` [Example 330], the Eff. % in data set [4] amounted to 83%. Also, in data set [2], the LogP is 4.2 [a].
As to `Cn1c(/C(=N\OCc2cccc(NC(=O)Cc3ccccc3)n2)c2ccccc2)noc1=O` [Example 341], the results for the Eff. % (in the data set with Phytophthora infestans [1]; in data set [4]) were 100% and 70%, respectively. Besides, in data set [2], the LogP is 3.53 [a].
Consider `Cn1c(/C(=N\OCc2cccc(NC(=O)CCc3ccccc3)n2)c2ccccc2)noc1=O` [Example 347], for which the Eff. % in the data set on Phytophthora infestans [1] is recorded as 100%; with Phytophthora infestans [3] it was 92%; in the data set with Plasmopara viticola, 100%. The LogP in data set [2] was 3.78 [a].
`Cn1c(/C(=N\OCc2cccc(NC(=O)OC3CCCCC3)n2)c2ccc(F)cc2)noc1=O` [Example 351]: the Eff. % in the data set with Phytophthora infestans [1] is 93%; in the data set on Puccinia recondita, 75%. Further, the log partition coefficient (LogP) in data set [2] is 4.54 [a].
For the molecule `CCCCC(=O)Nc1cccc(CO/N=C(/c2cccc(C)c2)c2noc(=O)n2C)n1` [Example 384], the Eff. % in the data set on Phytophthora infestans [1] was found to be 100%; in data set [4], 70%; in the data set on Puccinia recondita, 79%. Also, the LogP in data set [2] is 3.83 [a].
On to `C#CCCC(C)OC(=O)Nc1cccc(CO/N=C(/c2ccccc2)c2noc(=O)n2C)n1` (centres unmarked) [Example 395], for which the Eff. % came to 99% in the data set on Phytophthora infestans [1], 93% with Plasmopara viticola and 72% in the data set on Puccinia recondita. Further, the LogP in data set [2] was 3.8 [a].
Consider `C#CCCOC(=O)Nc1cccc(CO/N=C(/c2ccccc2)c2noc(=O)n2CC=C)n1` [Example 405], for which the LogP in data set [2] is 3.61 [a]. Besides, the Eff. % in the data set on Phytophthora infestans [3] is given as 95%; in the data set with Plasmopara viticola, 85%.
